According to patent US12133922B2, “Abuse resistant capsule” (R.P. Scherer Technologies, LLC, priority 2013, dated 2024):
Counter-ions that a name gives are not always drawn.

Assay: aqueous, methanol and acidic extraction of capsule fill, assay by HPLC
Assay type: physicochemical
Description: In order to ascertain the resistance to aqueous and acidic extraction, the fill mass of 10 capsules was mixed with different amounts of purified water (5 mL/caps. and 10 mL/caps.) and extracted for 1, 3 or 5 days. Further, the fill mass of 10 capsules was mixed with 20 mL of methanol and was extracted for 3 days.
The fill mass of 10 capsules of Formulation A or Formulation B was mixed with 20 mL of 0.1 N hydrochloric acid and extracted for one day. Comparison solutions of Pseudoephedrine HCl (labeled as API in the table below) were prepared. After an extraction of the formulation/solvent mixture, the mixtures were centrifugated and the assay of pseudoephedrine HCl was analyzed by HPLC. Even after centrifugation the solutions were turbid. The results were normalized to a capsule containing 1164.8 mg of pseudoephedrine HCl.

Structure (SMILES): CN[C@@H](C)[C@@H](O)c1ccccc1 [API, Pseudoephedrine HCl]
- Calculated Mass of recoverable Pseudoephedrine HCl (comparison solution, 1 day, 50 mL water): 1026.0 mg
- Calculated Mass of recoverable Pseudoephedrine HCl (comparison solution, 3 days, 50 mL water): 1243.7 mg
- Calculated Mass of recoverable Pseudoephedrine HCl (comparison solution, 5 days, 50 mL water): 1227.7 mg
- Calculated Mass of recoverable Pseudoephedrine HCl (extraction 1 day, 20 mL HCl 0.1 mol/L with neutralisation): 1197.3 mg
- Calculated Mass of recoverable Pseudoephedrine HCl (extraction 1 day, 20 mL HCl 0.1 mol/L without neutralisation): 1054.7 mg
- Calculated Mass of recoverable Pseudoephedrine HCl (extraction 3 days, 20 mL methanol): 1165.6 mg
